Here are results for one compound from article PMC10348910, “Epigenetic reprogramming of cell cycle genes by ACK1 promotes breast cancer resistance to CDK4/6 inhibitor” (Oncogene, 2023).

Test [1] has as its system Cal-148 xenografts. In words: Cal-148 xenograft in mammary fat pad. The test is classed as in vivo, female SCID mice. The following applies: 24 mg/Kg subcutaneously, 4 weeks. The protocol:
In order to assess the in vivo implications of ACK1 inhibition in TNBCs, Cal-148 xenografts were established in mammary fat pad of female SCID mice. Once the tumors were palpable, the mice were injected subcutaneously with 24 mg/Kg of (R)-9b for 4 weeks and the tumor volumes were measured. On reaching the endpoint, the mice were sacrificed and the tumors were harvested, weighed and photographed. […] RNA was prepared from the tumors, followed by qRT-PCR.
Fig. 6 (R)-9b inhibits breast cancer xenograft tumor growth in vivo. A 2 × 10^6 Cal-148 cells were injected in the 4th inguinal mammary fat pad of female SCID mice. Once the tumors were palpable, the mice were treated subcutaneously with either vehicle (Captisol; n = 8) or (R)-9b at 24 mg/Kg (n = 8) five times a week, for 4 weeks. The tumor volumes were measured twice a week. B, C The tumors were harvested and photographed, and the weights were recorded. D RNA was prepared from the tumors, followed by qRT-PCR to determine the levels of CCNB1, CCNB2 and CDC20 mRNA (n = 3 each). […] The tumors were harvested, their weights were recorded and photographed. […]
All animal experiments were performed using the standards for humane care in accordance with the NIH Guide for the Care and Use of Laboratory Animals. […] Tumor volumes were measured twice a week using calipers. […]

Test [2] deals with pY88-H4 marks in CXCR4 promoter region. In words: ChIP-qPCR with pY88-H4 antibody for CXCR4 gene. The following applies: breast cancer cells. Format: cell-based. The protocol:
Fig. 7 ACK1 inhibitor overcomes palbociclib-resistant breast cancer growth and metastasis. A 3 × 10^6 MDA-MB-468 cells were injected in the 4th inguinal mammary fat pad of female SCID mice. Once the tumors were palpable, the mice were treated with either vehicle (Captisol; n = 7), Palbociclib at 80 mg/kg (n = 6), or (R)-9b at 36 mg/Kg (n = 6) orally. In addition, mice were injected with (R)-9b at 24 mg/Kg (n = 7) subcutaneously. Mice were treated five times a week, for 22 days. B, C The tumors were harvested and photographed, and the weights were recorded. D Vehicle or (R)-9b treated breast cancer cells were subjected to ChIP using pY88-H4 antibody, followed by qPCR for CXCR4 gene. […] H Graphical quantitation of lung metastatic deposit. […] The metastases were assessed using IVIS. […] For (A, C–F, I), p values were calculated using unpaired two-tailed Student’s t test.
Cell pellets were resuspended in RLB buffer and sonicated and the soluble chromatin was incubated with antibodies and Protein-G/A magnetic beads. […] The size and quality of the library was evaluated using the Agilent BioAnalyzer (Agilent Technologies, Inc., Santa Clara, CA), and the library was quantitated with the Kapa Library Quantification Kit. Each enriched DNA library was then sequenced on an Illumina NextSeq 500 sequencer to generate 40–50 million 75-base paired-end reads (Illumina, Inc., San Diego, CA). […]

Test [3] has as its target ACK1 (Homo sapiens, UniProt Q07912). As to the kind of experiment: biochemical. To be noted: 1 uM ATP; read-out: Compound IC50 (M) ACK1.

Sequence of ACK1 (Q07912 whole entry): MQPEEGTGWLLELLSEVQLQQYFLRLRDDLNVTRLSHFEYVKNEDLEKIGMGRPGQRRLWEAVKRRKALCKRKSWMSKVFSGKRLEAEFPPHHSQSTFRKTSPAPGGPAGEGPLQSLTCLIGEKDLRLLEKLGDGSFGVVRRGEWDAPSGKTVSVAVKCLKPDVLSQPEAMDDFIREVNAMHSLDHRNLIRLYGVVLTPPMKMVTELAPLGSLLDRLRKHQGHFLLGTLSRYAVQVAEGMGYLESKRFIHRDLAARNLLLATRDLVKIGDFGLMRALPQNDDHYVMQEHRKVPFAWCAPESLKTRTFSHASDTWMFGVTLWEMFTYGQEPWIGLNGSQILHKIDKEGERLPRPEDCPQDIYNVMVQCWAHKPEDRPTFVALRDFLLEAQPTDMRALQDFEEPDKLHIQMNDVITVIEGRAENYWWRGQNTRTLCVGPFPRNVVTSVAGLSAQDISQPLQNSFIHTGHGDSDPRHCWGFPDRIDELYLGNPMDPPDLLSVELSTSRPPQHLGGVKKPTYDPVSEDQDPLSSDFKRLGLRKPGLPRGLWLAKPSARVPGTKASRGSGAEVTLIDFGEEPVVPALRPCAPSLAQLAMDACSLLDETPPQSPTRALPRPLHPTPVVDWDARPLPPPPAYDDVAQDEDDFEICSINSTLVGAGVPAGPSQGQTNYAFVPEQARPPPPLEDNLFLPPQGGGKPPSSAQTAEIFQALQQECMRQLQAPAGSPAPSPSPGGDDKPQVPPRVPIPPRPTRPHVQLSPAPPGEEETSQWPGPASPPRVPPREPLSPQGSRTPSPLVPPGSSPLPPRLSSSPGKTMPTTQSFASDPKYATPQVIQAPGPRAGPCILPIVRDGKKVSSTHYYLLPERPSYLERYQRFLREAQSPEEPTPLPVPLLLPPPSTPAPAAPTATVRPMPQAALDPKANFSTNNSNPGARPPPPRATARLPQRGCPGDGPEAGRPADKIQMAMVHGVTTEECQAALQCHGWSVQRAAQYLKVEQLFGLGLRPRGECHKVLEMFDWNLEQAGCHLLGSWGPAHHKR

`CN1CCN(c2ccc(Nc3ncc(Cl)c(NC[C@H]4CCCO4)n3)cc2)CC1` [(R)-9b]: the “CCNB1, CCNB2 and CDC20 mRNA levels in tumors” value in test [1] is given as “significant decrease”. Also, the xenograft tumor growth result in test [1] (five times a week) was “significant suppression”. In test [2], the “pY88-H4 epigenetic marks in CXCR4 promoter region” value is “erased these marks”. Besides, the IC50 in test [3] was found to be 1.25e-08 M.
